Values after ≈ are worked out from the molar mass of the structure shown. Read-outs that look alike come from different tables or passages of the source.
How the values were obtained:
Assay in all cases: broth microdilution assay
Candida albicans (CA2) = assay type: cell-based; conditions: comparative run, I 64-0.03, II 128-0.06 μg/ml, complete clearing
Protocol: (§1) In the microbroth dilution assay, the selected microorganisms were grown by streaking a yeast culture on Sabouraud Dextrose agar (SDA) and incubating for 24-48 hr at 35°-37° C. Thereafter, 3-5 characteristic colonies were selected and transferred to CM-YNB+0.1% Dextrose Agar plates (1% Bactopeptone, 0.5% yeast extract, 6.7 g/L yeast nitrogen base with amino acids, 1 μM adenine, 0.1% dextrose, and 1.5% Bacto agar) and incubated overnight at 35°-37° C. From the regrowth, 3 to 5 colonies were selected and suspended in 5 ml of CM-YNBD media (same as above, only without agar) and incubated for 4-6 hr at 35°-37° C. shaking at 225 rpm. The broth cultures were adjusted spectrophotometrically to 86% transmission resulting in a concentration of 1-5×10^6 cfu/ml which was further diluted 1:100 (1:50 for Aspergillus) in CM-YNBD to obtain a concentration of 1-5 ×10^4 cfu/ml to use as inocula.
(§2) The test compounds were prepared as a stock solution of 512 μg/ml in 10% DMSO and 75 μl of said solution delivered to a well in column one of each 96 well, U-bottomed microtiter plate that already contained 75 μl of CM-YNBD media per well. In the first run of the assay, Compound I was then serially diluted two fold from column 1 to column 12 to yield concentrations from 256 μg/ml to 0,125 μg/ml.
(§3) Amphotericin B, the control compound, was prepared as a stock solution of 512 μg/ml in 10% DMSO and 75 μl of said solution delivered to a well in column one of each 96 well, U-bottomed microtiter plate that already contained 75 μl of CM-YNBD media per well. The compound was then serially diluted two fold from column 1 to column 12 to yield concentrations from 256 μg/ml to 0,125 μg/ml.
(§4) The plates containing the diluted compounds were then inoculated with 75 μl/well of the appropriate microorganism resulting in a further 2-fold dilution such that the final concentration of test compounds ranged between 128 and 0.06 μg/ml. The plates were incubated for 48 hours at 35°-37° C. with MIC (minimum inhibitory concentration) determinations carried out after 24 hours of incubation. Growth and sterility controls for each organism and sterility checks for the compounds also were carried out. In three cases, a modified MIC endpoint (MIC2) was used.
(§5) After recording MICs at 24 hours, samples are withdrawn to determine the MFC. The microtiter plates were shaken gently to resuspend the cells and […] sample was transferred from each well of the 96 well plate to the surface of a single reservoir inoculum plate containing 15 ml of SDA. The inoculated SDA and corresponding microtiter plates were incubated for 24 hours at 35°-37° C. For Cryptococcus neoformans, the MFC plates were inoculated after reading the 48 hour MICs and incubated for 48 hours before reading the MFC. The MFC is the lowest concentration of compound at which either no growth or growth of ≤3 colonies occurs.
(§6) In this run, Compound I was titrated from 64-0.03 μg/ml and Compound II was titrated from 128-0.06 μg/ml.

[1] = test system: Candida albicans (CLY539); assay type: cell-based; conditions: for MIC: * = MIC2, prominent decrease in turbidity
Protocol: as §1, §2, §3, §4, §5, §6

[2] = test system: Candida albicans (MY1055); assay type: cell-based
Protocol: as §1, §2, §3, §4, §5, §6

[3] = test system: Candida glabrata (MY1381); assay type: cell-based; conditions: Nakaseomyces glabratus; for MIC: complete clearing
Protocol: as §1, §2, §3, §4, §5, §6

[4] = test system: Candida guillermondii (MY1019); assay type: cell-based; conditions: for MIC: complete clearing
Protocol: as §1, §2, §3, §4, §5, §6

[5] = test system: Candida parapsilosis (MY1010); assay type: cell-based; conditions: Lodderomyces parapsilosis
Protocol: as §1, §2, §3, §4, §5, §6

[6] = test system: Candida tropicalis (MY1012); assay type: cell-based; conditions: for MIC: complete clearing
Protocol: as §1, §2, §3, §4, §5, §6

[7] = test system: Candida tropicalis (MY1124); assay type: cell-based
Protocol: as §1, §2, §3, §4, §5, §6

[8] = test system: Cryptococcus neoformans (MY2062); assay type: cell-based; conditions: complete clearing
Protocol: as §1, §2, §3, §4, §5, §6

[9] = test system: Saccharomyces cerevisiae (MY2140); assay type: cell-based; conditions: for MIC: complete clearing
Protocol: as §1, §2, §3, §4, §5, §6

[10] = test system: Saccharomyces cerevisiae (MY2141); assay type: cell-based; conditions: for MIC: complete clearing
Protocol: as §1, §2, §3, §4, §5, §6

[11] = test system: Candida pseudotroplicalis (MY2099); assay type: cell-based, Candida pseudotropicalis; conditions: for MIC: complete clearing
Protocol: as §1, §2, §3, §4
After recording MICs at 24 hours, samples are withdrawn to determine the MFC. The microtiter plates were shaken gently to resuspend the cells and […] sample was transferred from each well of the 96 well plate to the surface of a single reservoir inoculum plate containing 15 ml of SDA. The inoculated SDA and corresponding microtiter plates were incubated for 24 hours at 35°-37° C. For Cryptococcus neoformans, the MFC plates were inoculated after reading the 48 hour MICs and incubated for 48 hours before reading the MFC. […]

[12] = test system: Aspergillus fumigatus (MF4839); assay type: cell-based; conditions: for MIC: complete clearing
Protocol: as §1, §2, §3, §4
(§7) No MFC values are indicated for Aspergillus fumigatus since colony counts are unreliable with filamentous species. Instead, a Minimum Effective Concentration (MEC) is reported for A. fumigatus. The MEC is defined as the lowest concentration of drug which effects a severe morphological change in the cells. The MEC is scored […] by direct observation of the microtiter plate wells after 24 hours and reflects microscopic alterations in cell morphology (Kurtz et al. AAC:38:1480-1489[94]).
as §6

[13] = test system: Aspergillus fumigatus (MF5668); assay type: cell-based; conditions: for MIC: complete clearing
Protocol: as §1, §2, §3, §4, §7, §6

[14] = comparative run, I 64-0.03, II 128-0.06 μg/ml
[15] = comparative run, II 128-0.06 μg/ml, * = MIC2, prominent decrease in turbidity, read-out: MIC2
[16] = first run, 128-0.06 μg/ml, 24 h
[17] = first run, 128-0.06 μg/ml, no growth or ≤3 colonies
[18] = comparative run, I 64-0.03 μg/ml, complete clearing, read-out: MIC
[19] = first run, 128-0.06 μg/ml, 24 h, * = MIC2, prominent decrease in turbidity, read-out: MIC2
[20] = first run, lowest concentration effecting severe morphological change, 24 h, read-out: MEC

`C=C(CCC(C)C1CCC2(C(=O)O)C3=C(CCC12C)C1(C)CCC(OC2OC(CO)C(O)C(O)C2O)C(=C)C1CC3)C(C)C` (stereo not shown) [Compound II] was tested, and the MIC (Candida albicans (CA2)) was over 128 µg/mL, the MIC [1, 14] was over 128 µg/mL and the MIC [2, 15] was 1 µg/mL (≈ 1.62 µM). The MIC [3, 14] was 0.5 µg/mL (≈ 0.811 µM), the MIC [4, 14] was over 128 µg/mL and the MIC [5, 15] was 2 µg/mL (≈ 3.24 µM). For the same compound, the MIC [6, 14] was 8 µg/mL (≈ 13 µM), the MIC ([7]; comparative run, II 128-0.06 μg/ml, complete clearing, read-out: MIC) was 0.5 µg/mL (≈ 0.811 µM) and the MIC [8, 14] was over 128 µg/mL. For the same compound, the MIC [9, 14] was 1 µg/mL (≈ 1.62 µM), the MIC [10, 14] was under 0.06 µg/mL and the MIC [11, 14] was under 0.06 µg/mL. It also gave an MIC [12, 14] of over 128 µg/mL and an MIC [13, 14] of over 128 µg/mL.
`C=C(CCC(C)C1CC(O)C2(C(=O)O)C3=C(CCC12C)C1(C)CCC(OC2OC(CO)C(OC)C(O)C2O)C(=C)C1CC3)C(C)C` (stereo not shown) [Compound I] showed an MIC (Candida albicans (CA2)) of over 64 µg/mL, an MIC [1, 14] of under 0.03 µg/mL and an MIC [1, 16] of 0.5 µg/mL (≈ 0.773 µM). The MFC [1, 17] was over 128 µg/mL, the MIC [2, 18] was under 0.03 µg/mL and the MIC [2, 19] was 2 µg/mL (≈ 3.09 µM). The MFC [2, 17] was under 0.06 µg/mL, the MIC [3, 16] was under 0.06 µg/mL and the MFC [3, 17] was under 0.06 µg/mL. The MIC [4, 14] was over 64 µg/mL, the MIC [4, 16] was over 128 µg/mL and the MFC [4, 17] was over 128 µg/mL. The MIC [5, 18] was under 0.03 µg/mL, the MIC ([5]; first run, 128-0.06 μg/ml, 24 h, complete clearing, read-out: MIC) was under 0.06 µg/mL and the MFC [5, 17] was under 0.06 µg/mL. It also gave an MIC [6, 14] of 8 µg/mL (≈ 12.4 µM), an MIC [6, 16] of 8 µg/mL (≈ 12.4 µM) and an MFC [6, 17] of 8 µg/mL (≈ 12.4 µM). The MIC ([7]; comparative run, I 64-0.03 μg/ml, * = MIC2, prominent decrease in turbidity, read-out: MIC2) was under 0.03 µg/mL, the MIC [7, 19] was 0.25 µg/mL (≈ 0.386 µM) and the MFC [7, 17] was 0.125 µg/mL (≈ 0.193 µM). For the same compound, the MIC [8, 14] was over 64 µg/mL, the MIC ([8]; first run, 128-0.06 μg/ml) was 32 µg/mL (≈ 49.5 µM) and the MIC [9, 14] was 4 µg/mL (≈ 6.18 µM). For the same compound, the MIC [9, 16] was 8 µg/mL (≈ 12.4 µM), the MFC [9, 17] was 4 µg/mL (≈ 6.18 µM) and the MIC [10, 14] was under 0.03 µg/mL. For the same compound, the MIC [10, 16] was under 0.06 µg/mL, the MFC [10, 17] was under 0.06 µg/mL and the MIC [11, 14] was under 0.03 µg/mL. The MIC [11, 16] was under 0.06 µg/mL, the MFC [11, 17] was under 0.06 µg/mL and the MIC [12, 14] was over 64 µg/mL. The MIC [12, 16] was over 128 µg/mL, the minimal effective concentration [12, 20] was 0.25 µg/mL and the MIC [13, 14] was over 64 µg/mL. For the same compound, the MIC [13, 16] was over 128 µg/mL and the minimal effective concentration [13, 20] was under 0.06 µg/mL.

Reference: patent US5597806A, “Antifungal agents” (Merck & Co., Inc., priority 1995, dated 1997)
